Entries after “also recorded” stand apart in the source; their conditions may differ. Like-named read-outs stand apart in the source and are kept apart here.
Key:
Rb:Raf-1 binding = molecular target: T1, Rb:Raf-1 binding (Homo sapiens, UniProt P04049+P06400); experiment: GST-Rb/GST-Raf-1 ELISA; conditions: for Rb:Raf-1 binding inhibitory activity in words: ELISA; for fold less active compared to 3a: IC50 ratio to 3a
T1 construct: a glutathione S-transferase (GST) Raf-1 (1-149aa) overnight at 4° C; made in house
Protocol: In vitro library screening assays. Enzyme Linked ImmunoSorbent Assay (ELISA) 96-well plates were coated with 1 μg/mL of a glutathione S-transferase (GST) Raf-1 (1-149aa) overnight at 4° C. Subsequently the plates were blocked and GST Rb at 20 μg/mL was rotated at room temperature (RT) for 30 minutes in the presence or absence of the compounds at 20 micromolar (μM). GST-Rb +/− compounds were then added to the plate and incubated for 90 minutes (min) at 37° C. The amount of Rb bound to Raf-1 was detected by Rb polyclonal antibody (Santa Cruz Biotechnology, Santa Cruz, Calif.) 1:1000 incubated for 60 min at 37° C. Donkey-anti-rabbit-IgG-HRP (1:10,000) was added to the plate and incubated at 37° C. for 60 minutes. The color was developed with orthophenylenediamine (Sigma, St. Louis, Mo.) and the reaction was terminated with 3 molar (M) H2SO4. Absorbance was read at 490 nanometers (nm). To determine disruption of Rb to E2F1, Phb, or HDAC1 the above protocol was used with the exception of coating GST Rb on the ELISA plate and adding the drugs in the presence or absence of GST E2F1, Phb, or HDAC1. […] Prohibitin monoclonal antibody was used at 1:1000 to detect the amount of Rb bound to Prohibitin. For disruption of MEK-Raf-1 binding ELISAs, Raf-1 1 microgram/milliliter (μg/mL) was coated on the plate and GST-MEK (20 μg/mL) was incubated +/− the compounds for 30 minutes at room temperature. Mek1 polyclonal antibody was used at 1:1000 to detect the binding of Raf-1 to Mek1. The IC50 concentrations for the Rb:Raf-1 inhibitors were determined by plotting with Origin 7.5 software (Origin, Northampton, Mass.).
A screen was developed to identify small molecule inhibitors of the Rb:Raf-1 interaction. A diversity set, comprising 1981 compounds (National Cancer Institute, Bethesda, Md.) was examined using a glutathione S-transferase-retinoblastoma/glutathione S-transferase-Raf-1 kinase Enzyme-Linked ImmunoSorbent Assay screen (GST-Rb/GST-Raf-1 ELISA).

[1] = test system: Rb phosphorylation (serines 807 and 811); experiment: Western blot of Rb phosphorylation, A549 cells; format: cell-based, human; conditions: cells treated 18 hours, western blotting
Excerpt: Lysate preparation, pmmunoprecipitation, and pestern plotting.

[2] = molecular target: binding of Raf-1 to GST Rb beads (Homo sapiens, UniProt P04049+P06400); experiment: GST pull-down, U937 lysates; conditions: 20 μM, asynchronous U937 lysates, western blotting
Protocol: First, 200 micrograms (μg) of U937 asynchronous lysates were pre-incubated with 10 μM of the indicated drugs or 1 μM of the Raf-1 peptide for 30 minutes at 4° C. Next, 200 μg of the U937 lysates were incubated with glutathione beads carrying an equal amount of the GST fusion proteins in 2001 of protein binding buffer (20 mM Tris [pH 7.5], 50 mM KCL, 0.5 mM EDTA, 1 mM dithiothreitol, 0.5% NP-40, 3 mg of bovine serum albumin/mL) at 4° C. for 2 h.
Asynchronous U937 lysates were incubated with GST-Rb beads in the presence or absence of the selected compounds or an 8 amino acid Raf-1 peptide and the binding of Raf-1 assessed by western blotting.

[3] = molecular target: binding of Raf-1 to Rb in U937 cells (Homo sapiens, UniProt P04049+P06400); experiment: Immunoprecipitation-Western blot, serum stimulated U937 cells; conditions: U937 cells serum stimulated 2 hours, 20 μM
Protocol: Lysate preparation, pmmunoprecipitation, and pestern plotting. Lysates from cells treated with different agents were prepared by NP-40 lysis as described earlier (Wang 1998). […] Physical interaction between proteins in vivo was analyzed by immunoprecipitation—Western blot analyses with 200 μg of lysate with 1 μg of the indicated antibody as previously described (Wang 1998). Polyclonal E2F1 and Cyclin D were obtained from Santa Cruz Biotechnology. Monoclonal Rb and Raf-1 were supplied by BD Transduction laboratories (San Jose, Calif.). Polyclonal antibodies to phospho-Rb (807,811) phospho-MEK1/2, MEK1/2, phospho-Erk1/2 and ERK1/2 were supplied by Cell Signaling (Danvers, Mass.).
U937 cells were serum starved for 48 hours and subsequently serum stimulated for 2 hours in the presence or absence of 20 μM of the compounds.

[4] = test system: Human aortic endothelial cells (HAECs); experiment: Matrigel angiogenic tubule formation; format: cell-based; conditions: 20 μM
Protocol: Matrigel assays. […] A total of 100 μl of thawed Matrigel was added to 96-well tissue culture plates, followed by incubation at 37° C. for 60 minutes to allow polymerization. […] Capillary tube formation assessed by using a Leica DMIL phase contrast microscope.
An experiment was performed to determine whether angiogenic tubule formation could be inhibited by the disclosed compounds.

[5] = inhibition of Rb:Raf-1 binding, compound at 20 μM, read-out: % Inhibition at 20 μM
[6] = concentration that inhibits the Rb:Raf-1 binding by 50%, triplicate, read-out: IC50 (nM), inhibition of the Rb:Raf-1 binding
[7] = values in μM, read-out: IC50, Rb:Raf-1 binding
[8] = IC50 (nM), inhibition of the Rb:Raf-1 binding, concentration that inhibits the Rb:Raf-1 binding by 50%, triplicate
[9] = inhibition of Rb:Raf-1 binding, compound at 20 μM
[10] = inhibition of Rb:Raf-1 binding, compound at 20 μM, 20 µM

T1 sequence (P04049 1-149 limits assumed): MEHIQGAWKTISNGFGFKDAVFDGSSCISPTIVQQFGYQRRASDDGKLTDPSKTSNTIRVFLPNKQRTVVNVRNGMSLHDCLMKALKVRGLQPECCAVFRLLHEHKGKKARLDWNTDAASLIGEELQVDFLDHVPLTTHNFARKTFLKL
T1 sequence (P06400 whole entry): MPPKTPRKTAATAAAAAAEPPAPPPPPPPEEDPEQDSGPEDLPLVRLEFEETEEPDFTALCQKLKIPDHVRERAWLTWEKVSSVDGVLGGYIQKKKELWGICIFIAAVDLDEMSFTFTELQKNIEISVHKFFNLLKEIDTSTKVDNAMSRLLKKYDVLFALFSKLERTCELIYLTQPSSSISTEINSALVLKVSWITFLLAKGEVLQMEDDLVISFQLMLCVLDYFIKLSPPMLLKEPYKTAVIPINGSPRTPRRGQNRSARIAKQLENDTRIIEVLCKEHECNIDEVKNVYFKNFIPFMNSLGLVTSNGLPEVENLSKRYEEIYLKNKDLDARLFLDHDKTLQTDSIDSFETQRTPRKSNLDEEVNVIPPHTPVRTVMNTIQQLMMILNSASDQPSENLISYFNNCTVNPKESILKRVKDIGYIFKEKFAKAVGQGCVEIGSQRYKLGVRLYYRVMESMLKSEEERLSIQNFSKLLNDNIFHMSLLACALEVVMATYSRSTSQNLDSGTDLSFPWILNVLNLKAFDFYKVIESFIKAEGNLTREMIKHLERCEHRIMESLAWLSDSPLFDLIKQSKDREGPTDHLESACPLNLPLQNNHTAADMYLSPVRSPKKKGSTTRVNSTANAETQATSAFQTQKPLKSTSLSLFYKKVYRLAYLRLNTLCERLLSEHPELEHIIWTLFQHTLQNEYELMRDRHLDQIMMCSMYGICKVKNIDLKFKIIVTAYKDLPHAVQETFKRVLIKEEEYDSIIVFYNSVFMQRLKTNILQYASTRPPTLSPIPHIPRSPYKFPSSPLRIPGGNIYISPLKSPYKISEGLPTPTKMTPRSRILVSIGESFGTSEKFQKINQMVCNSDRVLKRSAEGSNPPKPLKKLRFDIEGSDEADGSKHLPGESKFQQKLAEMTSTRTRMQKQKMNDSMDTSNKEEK
binding of Raf-1 to GST Rb beads, sequence (P06400 whole entry): as above
binding of Raf-1 to GST Rb beads, sequence (P04049 whole entry): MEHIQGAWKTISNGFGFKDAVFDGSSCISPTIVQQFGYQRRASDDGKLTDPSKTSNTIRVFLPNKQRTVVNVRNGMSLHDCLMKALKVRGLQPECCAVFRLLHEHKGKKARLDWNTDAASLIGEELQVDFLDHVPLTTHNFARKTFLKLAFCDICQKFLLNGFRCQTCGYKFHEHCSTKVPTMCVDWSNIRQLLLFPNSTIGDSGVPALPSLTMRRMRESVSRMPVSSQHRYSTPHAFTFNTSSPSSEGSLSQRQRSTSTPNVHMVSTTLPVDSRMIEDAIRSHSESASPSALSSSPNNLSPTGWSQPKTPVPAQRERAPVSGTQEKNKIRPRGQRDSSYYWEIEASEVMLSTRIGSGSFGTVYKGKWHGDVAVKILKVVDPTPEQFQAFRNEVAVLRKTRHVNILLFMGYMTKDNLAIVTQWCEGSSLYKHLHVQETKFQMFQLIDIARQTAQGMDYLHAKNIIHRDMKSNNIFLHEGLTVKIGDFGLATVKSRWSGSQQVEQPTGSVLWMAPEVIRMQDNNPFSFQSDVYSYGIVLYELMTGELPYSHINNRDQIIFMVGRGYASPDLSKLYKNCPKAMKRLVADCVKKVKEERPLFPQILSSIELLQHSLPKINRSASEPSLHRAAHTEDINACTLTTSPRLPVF
binding of Raf-1 to Rb in U937 cells, sequence (P06400 whole entry): as the sequence (P06400 whole entry) above
binding of Raf-1 to Rb in U937 cells, sequence (P04049 whole entry): as the sequence (P04049 whole entry) above

| inhibition at 20 µM (Rb:Raf-1 binding; [5]) [%] | Structure (SMILES) | other results |
| --- | --- | --- |
| 32 | Nc1nc(-c2ccc(F)cc2)cs1 [Compound 7h] |  |
|  | CNC(=O)c1cc(Oc2ccc(NC(=O)Nc3ccc(Cl)c(C(F)(F)F)c3)cc2)ccn1 [BAY43-9006, sorafenib, reference compound] | Rb phosphorylation [1]: did not seem to have any effect on Rb phosphorylation |
| 79 | N=C(N)SCc1cc(Cl)ccc1Cl [Compound 3i] | IC50 (Rb:Raf-1 binding; [6]): 2110 ± 180 nM |
| 100 | N=C(N)SCc1ccccc1Cl [Compound 3b, 2-chlorobenzylisothiourea] | IC50 (Rb:Raf-1 binding; [7]): 575 nM |
| 47 | Clc1ccc(CSC2=NCCN2)cc1 [Compound 9g] |  |
| 0 | Cl.N=C(N)SCc1c(Cl)cccc1Cl [Compound 3s] | Rb:Raf-1 binding inhibitory activity in words (Rb:Raf-1 binding): inactive |
| 46 | N=C(N)SCc1ccc(C(F)(F)F)cc1 [Compound 3n] |  |
| 100 | N=C(N)SCc1ccc2ccccc2c1Br [Compound 5a] | IC50 (Rb:Raf-1 binding; [6]): 80 nM |
| 81 | Cl.N=C(N)SCc1ccc(Cl)c(Cl)c1 [Compound 3h] | fold less active compared to 3a (Rb:Raf-1 binding): 50 fold; IC50 (Rb:Raf-1 binding; [6]): 3900 nM |
| 39 | Nc1nc(-c2ccc(F)cc2F)cs1 [Compound 7e] |  |
| 76 | Nc1nnc(SCc2ccc(Cl)cc2)[nH]1 [Compound 9d] |  |
| 40 | Clc1ccc(CSc2nc3ccccc3[nH]2)c(Cl)c1 [Compound 9j] |  |
| 22 | Nc1nc(-c2ccccc2)cs1 [Compound 7j] |  |
| 0 | Cl.N=C(N)SCc1c(Cl)cc(Cl)cc1Cl [Compound 3t] | Rb:Raf-1 binding inhibitory activity in words (Rb:Raf-1 binding): inactive |
| 0 | Cl.N=C(N)SCc1ccccc1 [Compound 3r] | Rb:Raf-1 binding inhibitory activity in words (Rb:Raf-1 binding): inactive |
| 20 | COc1cc(CSC(=N)N)cc(OC)c1OC [Compound 3q] |  |
|  | N=C(N)SCc1ccc(Cl)cc1Cl [(1), 2,4-dichlorobenzyl carbamimidothioate] | binding of Raf-1 to GST Rb beads [2]: inhibited the binding of GST Rb beads to endogenous Raf-1; IC50 (Rb:Raf-1 binding; [8]): 81 ± 4 nM; inhibition at 20 µM (Rb:Raf-1 binding; read-out: % Inhibition at 20 μM, inhibition of Rb:Raf-1 binding, compound at 20 μM): 100%; binding of Raf-1 to Rb in intact cells [3]: inhibited the binding of Raf-1 to Rb significantly; angiogenic tubule formation in matrigel [4]: inhibit angiogenic tubule formation; also recorded: significantly inhibited the angiogenic tubule formation |
| 100 | Cl.N=C(N)SCc1cccc(Cl)c1Cl [Compound 3d] | fold less active compared to 3a (Rb:Raf-1 binding): more than 2 fold; IC50 (Rb:Raf-1 binding; [6]): 164 nM |
| 53 | N=C(N)SCc1ccc(C(F)(F)F)cc1C(F)(F)F [Compound 3j] |  |
| 21 | N=C(N)SC(c1ccccc1)c1ccccc1 [Compound 4d] |  |

| inhibition at 20 µM (Rb:Raf-1 binding; [5]) [%] | Structure (SMILES) | other results |
| --- | --- | --- |
|  | Cl.N=C(N)NCc1ccc(Cl)cc1 [Compound 6b] | % Inhibition at 20 μM (Rb:Raf-1 binding; [9]): 61% |
| 99 | CC(SC(=N)N)c1ccc(Cl)c(Cl)c1 (stereo not shown) [Compound 4b] | IC50 (Rb:Raf-1 binding; [6]): 510 ± 116 nM |
| 94 | N=C(N)SCc1ccncc1 [Compound 5b] | IC50 (Rb:Raf-1 binding; [6]): 2630 ± 330 nM |
| 45 | COc1ccc(CSC(=N)N)cc1 [Compound 3o] |  |
| 45 | Nc1nc(-c2ccc(Cl)cc2Cl)cs1 [Compound 7b] |  |
|  | N=C(N)NCc1ccc(Cl)cc1 [Compound 6a] | IC50 (Rb:Raf-1 binding; [6]): 539 nM; % Inhibition at 20 μM (Rb:Raf-1 binding; [10]): 100% |
| 45 | Clc1ccc(CSC2=NCCN2)c(Cl)c1 [Compound 9i] |  |
|  | Cl.N=C(N)SCc1ccc(Cl)c2ccccc12 [Compound 5c] | IC50 (Rb:Raf-1 binding; [8]): 1900 nM; fold reduction of activity relative to 5a (Rb:Raf-1 binding; IC50 ratio to 5a): 24 fold; % Inhibition at 20 μM (Rb:Raf-1 binding; [9]): 93% |
| 19 | CNc1scc(-c2ccc(F)cc2)[n+]1C [Compound 8c] |  |
| 29 | Nc1nc(-c2ccc(Cl)cc2)cs1 [Compound 7i] |  |
| 53 | CNc1nc(-c2ccc(F)cc2F)cs1 [Compound 7a] |  |
| 61 | N=C(N)NCc1ccc(Cl)cc1Cl [Compound 6c] |  |
| 100 | CC(SC(=N)N)c1ccc(Cl)cc1Cl (stereo not shown) [Compound 4a] | IC50 (Rb:Raf-1 binding; [6]): 322 nM |
| 46 | N=C(N)SCc1ccc([N+](=O)[O-])cc1 [Compound 3m] |  |
| 68 | Clc1ccc(CSc2ncc[nH]2)c(Cl)c1 [Compound 9e] |  |
| 100 | N=C(N)SCc1cccc(Cl)c1 [Compound 3e, 3-chlorobenzylisothiourea] | IC50 (Rb:Raf-1 binding; [7]): 230 nM |
| 22 | N=C(N)SCc1c2ccccc2cc2ccccc12 [Compound 5f] |  |
| 100 | CCC(SC(=N)N)c1ccc(Cl)cc1Cl (stereo not shown) [Compound 4c] | IC50 (Rb:Raf-1 binding; [6]): 567 nM |
| 52 | CC(C)(C)c1ccc(CSC(=N)N)cc1 [Compound 3k] |  |
| 43 | CNc1nc(-c2ccc(F)cc2)cs1 [Compound 7c] |  |

| inhibition at 20 µM (Rb:Raf-1 binding; [5]) [%] | Structure (SMILES) | other results |
| --- | --- | --- |
| 49 | N=C(N)SCc1ccc2c(c1)OCO2 [Compound 3l] |  |
| 5 | CNc1scc(-c2ccc(F)cc2F)[n+]1C [Compound 8d] |  |
| 76 | N=C(N)SCc1ccc2ccccc2n1 [Compound 5d] |  |
| 91 | Nc1nnc(SCc2ccc(Cl)cc2Cl)[nH]1 [Compound 9b] | IC50 (Rb:Raf-1 binding; [6]): 131 nM |
| 37 | CNc1scc(-c2ccc(Cl)cc2)[n+]1C [Compound 8a] |  |
|  | N=C(N)NCc1ccccc1Cl [Compound 6e] | % Inhibition at 20 μM (Rb:Raf-1 binding; [9]): 25% |
| 81 | Clc1ccc(CSc2nnc[nH]2)cc1 [Compound 9c] |  |
| 32 | N=C(N)SC(Cc1ccccc1)c1ccc(Cl)cc1Cl (stereo not shown) [Compound 4e] |  |
| 94 | N=C(N)SCc1ccc(Cl)c(C(F)(F)F)c1 [Compound 3f] | IC50 (Rb:Raf-1 binding; [7]): 312 nM |
| 22 | CNc1scc(-c2ccccc2)[n+]1C [Compound 8b] |  |
| 34 | CNc1nc(-c2ccc(Cl)cc2)cs1 [Compound 7f] |  |
| 44 | Cc1ccc(CSC(=N)N)cc1 [Compound 3p] |  |
|  | N=C(N)NCc1ccc(Cl)cc1 [Compound 6f] | % Inhibition at 20 μM (Rb:Raf-1 binding; [10]): 16% |
| 39 | CNc1nc(-c2ccccc2)cs1 [Compound 7d] |  |
| 100 | N=C(N)SCc1ccc(Cl)c(F)c1 [Compound 3c] | IC50 (Rb:Raf-1 binding; [7]): 81 nM |
| 33 | CNc1nc(-c2ccc(Cl)cc2Cl)cs1 [Compound 7g] |  |
| 67 | Clc1ccc(CSc2ncc[nH]2)cc1 [Compound 9f] |  |
|  | Cl.N=C(N)NCc1ccccc1Cl [Compound 6d] | % Inhibition at 20 μM (Rb:Raf-1 binding; [9]): 59% |
| 88 | N=C(N)SCc1ccc(Cl)cc1 [Compound 3g, 4-chlorobenzylisothiourea] | IC50 (Rb:Raf-1 binding; [6]): 274 nM |
| 56 | N=C(N)SCc1ccc2c(c1)C(=O)c1ccccc1C2=O [Compound 5e] |  |

| Structure (SMILES) | inhibition at 20 µM (Rb:Raf-1 binding; [5]) [%] | other results |
| --- | --- | --- |
| Clc1ccc(CSc2nnc[nH]2)c(Cl)c1 [Compound 9a] | 92 | IC50 (Rb:Raf-1 binding; [6]): 97 nM |

— US9656953B2, “Inhibition of cell proliferation” (University of South Florida, priority 2005, dated 2017)
